Experimental data from US10513519B2, “Solid forms of (1S,4S)-4-(2-(((3S,4R)-3-fluorotetrahydro-2H-pyran-4-yl)amino)-8-((2,4,6-trichlorophenyl)amino)-9H-purin-9-yl)-1-methylcyclohexane-1-carboxamide and methods of their use” (Signal Pharmaceuticals, LLC, priority 2016, dated 2019).

Test system: cancer cell lines
Assay: Multiplexed cytotoxicity assay: cell proliferation (relative cell count IC50, GI50)
Type: cell-based
Experimental: (§1) Cells are grown in RPMI1640, 10% FBS, 2 mM L-alanyl-L-Glutamine, 1 mM Na pyruvate or a special medium in a humidified atmosphere of 5% CO2 at 37° C. Cells are seeded into 384-well plates and incubated in a humidified atmosphere of 5% CO2 at 37° C. Compounds are added 24 h post cell seeding. At the same time, a time zero untreated cell plate is generated. After a 72 hour incubation period, cells are fixed and stained with fluorescently labeled antibodies and nuclear dye to allow visualization of nuclei, apoptotic cells and mitotic cells. Apoptotic cells are detected using an anti-active caspase-3 antibody. Mitotic cells are detected using an anti phospho-histone-3 antibody. Compounds are serially diluted 3.16-fold and assayed over 10 concentrations in a final assay concentration of 0.1% DMSO from the highest test concentration of 10 μM. Automated fluorescence microscopy was carried out using a Molecular Devices ImageXpress Micro XL high-content imager, and images are collected with a 4× objective.
(§2) Sixteen-bit TIFF images are acquired and analyzed with MetaXpress 5.1.0.41 software. Cell proliferation is measured by the signal intensity of the incorporated nuclear dye. The cell proliferation assay output is referred to as the relative cell count. To determine the cell proliferation end point, the cell proliferation data output is transformed to percentage of control (POC) using the following formula: POC=relative cell count(compound wells)/relative cell count(vehicle wells)×100
(§3) GI50 is the concentration needed to reduce the observed growth by half. This is the concentration that inhibits the growth to the level midway between growth in untreated cells and the number of cells seeded in the well (Time zero value). The IC50 values are calculated using nonlinear regression to fit data to a sigmoidal 4 point, 4 parameter One-Site dose response model, where: y(fit)=A+[(B−A)/(1+((C/x)^D))].
as §1, with “In another experiment, cells were grown” for “Cells are grown”, “Cells were” for “Cells are”, “Compounds were” for “Compounds are”, “plate was” for “plate is”, “cells were” for “cells are”, “images were” for “images are”
as §2, with “images were” for “images are”, “proliferation was” for “proliferation is”, “output was” for “output is”
as §3, with “GI50 refers to” for “GI50 is”, “This corresponds to” for “This is”, “values were” for “values are”

[1] = 72 h, G292CLONEA141B1, Soft Tissue, Osteosarcoma
[2] = 72 h, HOS, Soft Tissue, Osteosarcoma
[3] = 72 h, HS729, Soft Tissue, Sarcoma
[4] = 72 h, HS821T, Soft Tissue, Sarcoma
[5] = 72 h, HS888SK, Soft Tissue, Osteosarcoma
[6] = 72 h, IM9, Hematopoietic and lymphoid, Myeloma
[7] = 72 h, TE125T, Soft Tissue, Sarcoma
[8] = 72 h, U266B1, Hematopoietic and lymphoid, Myeloma
[9] = 72 h, VAESBJ, Soft Tissue, Sarcoma
[10] = BC1 (Hematopoietic and lymphoid, Lymphoma)
[11] = BCP-1, BCP1 (Hematopoietic and lymphoid, Lymphoma)
[12] = BM-1604, 72 h, BM1604, Prostate, 72 h
[13] = CEM/C1, CEMC1 (Hematopoietic and lymphoid, Leukemia)
[14] = CML-T1, CMLT1 (Hematopoietic and lymphoid, Leukemia)
[15] = D341 Med, D341MED (CNS, Medulloblastoma)
[16] = DB (Hematopoietic and lymphoid, Lymphoma)
[17] = EB2 (Hematopoietic and lymphoid, Lymphoma)
[18] = EB3 (Hematopoietic and lymphoid, Lymphoma)
[19] = EM2 (Hematopoietic and lymphoid, Leukemia)
[20] = H9 (Hematopoietic and lymphoid, Lymphoma)
[21] = HS611T (Hematopoietic and lymphoid, Lymphoma)
[22] = HT (Hematopoietic and lymphoid, Lymphoma)
[23] = HUH-6-clone5, HUH6CLONE5 (Liver)
[24] = Homo sapiens, 22Rv1, 72 h, 22RV1, Prostate, 72 h
[25] = Homo sapiens, 639-V, 639V (Bladder)
[26] = Homo sapiens, 647-V, 647V (Bladder)
[27] = Homo sapiens, 769-P, 769P (Kidney)
[28] = Homo sapiens, 786-0, 786O (Kidney)
[29] = Homo sapiens, A101D, A101D (Skin, Melanoma)
[30] = Homo sapiens, A 172, A172 (CNS, Glioma)
[31] = Homo sapiens, A204, 72 h, A204, Soft Tissue, Sarcoma, 72 h
[32] = Homo sapiens, A253, A253 (Head and Neck)
[33] = Homo sapiens, A498, A498 (Kidney)
[34] = Homo sapiens, A549, 72 h, A549, Lung, NSCLC, 72 h
[35] = Homo sapiens, A673, 72 h, A673, Soft Tissue, Sarcoma, 72 h
[36] = Homo sapiens, A704, A704 (Kidney)
[37] = Homo sapiens, A2058, A2058 (Skin, Melanoma)
[38] = Homo sapiens, A-375, A375 (Skin, Melanoma)
[39] = Homo sapiens, A-427, 72 h, A427, Lung, NSCLC, 72 h
[40] = Homo sapiens, A-431, A431 (Skin, Carcinoma)
[41] = Homo sapiens, ACHN, ACHN (Kidney)
[42] = Homo sapiens, AN3-CA, 72 h, AN3CA, Female GU, Uterus
[43] = Homo sapiens, ARH-77, 72 h, ARH77, Hematopoietic and lymphoid, Myeloma, 72 h
[44] = Homo sapiens, ASPC1, 72 h, ASPC1, Pancreas, 72 h
[45] = Homo sapiens, AU565, AU565 (Breast)
[46] = Homo sapiens, BE(2)-C, 72 h, BE2C, CNS, Neuroblastoma
[47] = Homo sapiens, BFTC-905, BFTC905 (Bladder)
[48] = Homo sapiens, BHT-101, 72 h, BHT101, Endocrine, Thyroid, 72 h
[49] = Homo sapiens, BPH-1, 72 h, BPH1, Prostate, 72 h
[50] = Homo sapiens, BT-20, BT20 (Breast)

SMILES: C[C@]1(C(N)=O)CC[C@@H](n2c(Nc3c(Cl)cc(Cl)cc3Cl)nc3cnc(N[C@@H]4CCOC[C@H]4F)nc32)CC1 [Compound 1, cis-4-[2-{[(3S,4R)-3-fluorooxan-4-yl]amino}-8-(2,4,6-trichloroanilino)-9H-purin-9-yl]-1-methylcyclohexane-1-carboxamide]
- GI50 (5637 (Bladder)): 6850 nM
- IC50 (5637 (Bladder)): 9770 nM
- GI50 (72 h, AGS, Stomach): 8.6 nM
- IC50 (72 h, AGS, Stomach): 9.8 nM
- GI50 [1]: 27.2 nM
- IC50 [1]: 49.3 nM
- GI50 [2]: 2570 nM
- IC50 [2]: 3690 nM
- GI50 (72 h, HS229T, Lung, NSCLC): 415 nM
- IC50 (72 h, HS229T, Lung, NSCLC): > 10000 nM
- GI50 [3]: 540 nM
- IC50 [3]: > 10000 nM
- GI50 [4]: 169 nM
- IC50 [4]: > 10000 nM
- GI50 [5]: 111 nM
- IC50 [5]: > 10000 nM
- GI50 [6]: 91.1 nM
- IC50 [6]: 143 nM
- GI50 (72 h, JAR, Female GU, Placenta): 3170 nM
- IC50 (72 h, JAR, Female GU, Placenta): 3210 nM
- GI50 (72 h, KLE, Female GU, Uterus): > 10000 nM
- IC50 (72 h, KLE, Female GU, Uterus): > 10000 nM
- GI50 (72 h, PA1, Female GU, Ovary): 471 nM
- IC50 (72 h, PA1, Female GU, Ovary): 2620 nM
- GI50 (72 h, PC3, Prostate): 7820 nM
- IC50 (72 h, PC3, Prostate): 8540 nM
- GI50 (72 h, RD, Soft Tissue, Sarcoma): 36.7 nM
- IC50 (72 h, RD, Soft Tissue, Sarcoma): 44.3 nM
- GI50 (72 h, SKPNDW, Stomach): 3600 nM
- IC50 (72 h, SKPNDW, Stomach): > 10000 nM
- GI50 [7]: 1090 nM
- IC50 [7]: > 10000 nM
- GI50 (72 h, TT, Endocrine, Thyroid): 86.3 nM
- IC50 (72 h, TT, Endocrine, Thyroid): > 10000 nM
- GI50 [8]: 13.3 nM
- IC50 [8]: 109 nM
- GI50 [9]: 336 nM
- IC50 [9]: 580 nM
- GI50 (A7 (Skin, Melanoma)): 1720 nM
- IC50 (A7 (Skin, Melanoma)): 7270 nM
- GI50 (A388 (Head and Neck)): 422 nM
- IC50 (A388 (Head and Neck)): 1120 nM
- GI50 [10]: > 10000 nM
- IC50 [10]: > 10000 nM
- GI50 [11]: 20.5 nM
- IC50 [11]: 79.7 nM
- GI50 [12]: 141 nM
- IC50 [12]: 401 nM
- GI50 (C4I (Female GU, Cervix)): > 10000 nM
- IC50 (C4I (Female GU, Cervix)): > 10000 nM
- GI50 (C32 (Skin, Melanoma)): 28.9 nM
- IC50 (C32 (Skin, Melanoma)): 111 nM
- GI50 (C32TG, C32TG (Skin, Melanoma)): 40.8 nM
- IC50 (C32TG, C32TG (Skin, Melanoma)): 109 nM
- GI50 [13]: > 10000 nM
- IC50 [13]: > 10000 nM
- GI50 [14]: 149 nM
- IC50 [14]: > 10000 nM
- GI50 [15]: 10000 nM
- IC50 [15]: 21.9 nM
- GI50 [16]: 13.1 nM
- IC50 [16]: > 10000 nM
- GI50 (DKMG (CNS, Glioma)): 20.7 nM
- IC50 (DKMG (CNS, Glioma)): 126 nM
- GI50 [17]: 389 nM
- IC50 [17]: 550 nM
- GI50 [18]: 1630 nM
- IC50 [18]: 2150 nM
- GI50 [19]: 48.1 nM
- IC50 [19]: 93.6 nM
- GI50 (H4 (CNS, Glioma)): 758 nM
- IC50 (H4 (CNS, Glioma)): 943 nM
- GI50 [20]: 23.2 nM
- IC50 [20]: 39 nM
- GI50 (HLE (Liver)): 683 nM
- IC50 (HLE (Liver)): 1040 nM
- GI50 (HLF (Liver)): 4760 nM
- IC50 (HLF (Liver)): 6470 nM
- GI50 [21]: 10.6 nM
- IC50 [21]: 12.3 nM
- GI50 (HS688AT (Skin, Melanoma)): 82.2 nM
- IC50 (HS688AT (Skin, Melanoma)): > 10000 nM
- GI50 (HS852T (Skin, Melanoma)): 56.4 nM
- IC50 (HS852T (Skin, Melanoma)): 715 nM
- GI50 (HS895T (Skin, Melanoma)): > 10000 nM
- IC50 (HS895T (Skin, Melanoma)): > 10000 nM
- GI50 (HS934T (Skin, Melanoma)): 5.2 nM
- IC50 (HS934T (Skin, Melanoma)): > 10000 nM
- GI50 (HS936TC1 (Skin, Melanoma)): 18.4 nM
- IC50 (HS936TC1 (Skin, Melanoma)): 25.8 nM
- GI50 (HT3 (Female GU, Cervix)): 856 nM
- IC50 (HT3 (Female GU, Cervix)): 3210 nM
- GI50 [22]: 8300 nM
- IC50 [22]: > 10000 nM
- GI50 [23]: 145 nM
- IC50 [23]: 354 nM
- GI50 [24]: 2660 nM
- IC50 [24]: 5580 nM
- GI50 [25]: 184 nM
- IC50 [25]: 206 nM
- GI50 [26]: 6930 nM
- IC50 [26]: 7820 nM
- GI50 [27]: 194 nM
- IC50 [27]: 255 nM
- GI50 [28]: 2040 nM
- IC50 [28]: 6920 nM
- GI50 [29]: 42.4 nM
- IC50 [29]: 81.5 nM
- GI50 [30]: 64.9 nM
- IC50 [30]: 139 nM
- GI50 [31]: > 10000 nM
- IC50 [31]: > 10000 nM
- GI50 [32]: 171 nM
- IC50 [32]: > 10000 nM
- GI50 [33]: 522 nM
- IC50 [33]: 808 nM
- GI50 [34]: 102 nM
- IC50 [34]: 128 nM
- GI50 [35]: 3750 nM
- IC50 [35]: 3870 nM
- GI50 [36]: > 10000 nM
- IC50 [36]: > 10000 nM
- GI50 [37]: 212 nM
- IC50 [37]: 288 nM
- GI50 [38]: 6.5 nM
- IC50 [38]: 7.2 nM
- GI50 [39]: 47.5 nM
- IC50 [39]: 76.3 nM
- GI50 [40]: 228 nM
- IC50 [40]: 311 nM
- GI50 [41]: 306 nM
- IC50 [41]: 550 nM
- GI50 [42]: 713 nM
- IC50 [42]: 7030 nM
- GI50 [43]: > 10000 nM
- IC50 [43]: > 10000 nM
- GI50 [44]: 30.8 nM
- IC50 [44]: > 10000 nM
- GI50 [45]: 8150 nM
- IC50 [45]: 8770 nM
- GI50 [46]: 146 nM
- IC50 [46]: 210 nM
- GI50 [47]: 51.5 nM
- IC50 [47]: 54.6 nM
- GI50 [48]: 37.6 nM
- IC50 [48]: 41.2 nM
- GI50 [49]: 57.8 nM
- IC50 [49]: 67.5 nM
- GI50 [50]: 8360 nM
- IC50 [50]: > 10000 nM
